Results taken from patent US11753370B2, “Methods of making deuterium-enriched N-acetylcysteine amide (d-NACA) and (2R, 2R′)-3,3′-disulfanediyl bis(2-acetamidopropanamide) (diNACA) and using d-NACA and diNACA to treat diseases involving oxidative stress” (Nacuity Pharmaceuticals, Inc., priority 2017, dated 2023).

Assay: Plasma half-life
Format: in vivo
Description: Metabolism. An advantage of diNACA over N-acetylsysteine amide (NACA) is the reduction in metabolism rate compared to NACA. DiNACA has a longer plasma half-life than NACA. The major metabolites of diNACA are NACA and N-acetylcysteine (NAC) afforded by cleavage of the sulfur bond of diNACA to yield NACA and NAC. Dosing the patient with diNACA affords high greater bioavailability in tissues like the retina and aqueous humore compared to dosing with NACA, presumably due the higher lipophilicity of diNACA compared to NACA and the resulting in vivo cleavage to two NACA-like molecules, thereby effectively increasing the half-life of NACA in the body.
Metabolism. Deuterium-inhibition of NACA metabolism. An advantage of NACA-d3 is the reduction in metabolism rate compared to the non-deuterated NACA. Non-deuterated NACA has a plasma half-life of approximately 2 hours in fasting subjects and approximately 6 hours in fed subjects. The major metabolite of NACA is N-acetylcysteine (NAC) afforded by deamidation of the primary amide functional group of NACA by tissue (e.g., plasma or other tissue) amidase. Another metabolite of NACA is cysteine afforded by (a) deamidation of the primary amide functional group of NACA by tissue (e.g., plasma or other tissue) amidase and (b) de-acetylation of the secondary amide functional group of NACA by tissue (e.g., plasma or other tissue) amidase. Replacement of the acetyl methyl group hydrogen atoms with deuterium atoms slows down the action of tissue amidases on both (primary and secondary) amide functional groups of NACA-d3, thereby prolonging its residence time in the body, i.e., increasing the half-life in the body.

Row | plasma half-life compared to NACA (comparison with NACA) | plasma half-life (fasting subjects) | plasma half-life (fed subjects) | Molecule
1 | longer | – | – | CC(=O)N[C@@H](CSSC[C@H](NC(C)=O)C(N)=O)C(N)=O [DiNACA, (2R,2R′)-3,3′-disulfanediyl bis(2-acetamidopropanamide)]
2 | – | approximately 2 hours | approximately 6 hours | N-acetylcysteine amide [NACA]
